Reference: publication PMC10861852, “Loss of activation by GABA in vertebrate delta ionotropic glutamate receptors” (Proceedings of the National Academy of Sciences of the …, 2024)
Substitutions are numbered along the chain they refer to. Where two headings read alike, the source gives them in different places.

What was measured:
[1] = biological target: T1, RatGluD2^Lc (Rattus norvegicus, UniProt Q63226, A654T); test: Two-electrode voltage clamp, inhibition of constitutive current in oocytes; conditions: each n = 4
T1 sequence (Q63226 24-1007 A654T): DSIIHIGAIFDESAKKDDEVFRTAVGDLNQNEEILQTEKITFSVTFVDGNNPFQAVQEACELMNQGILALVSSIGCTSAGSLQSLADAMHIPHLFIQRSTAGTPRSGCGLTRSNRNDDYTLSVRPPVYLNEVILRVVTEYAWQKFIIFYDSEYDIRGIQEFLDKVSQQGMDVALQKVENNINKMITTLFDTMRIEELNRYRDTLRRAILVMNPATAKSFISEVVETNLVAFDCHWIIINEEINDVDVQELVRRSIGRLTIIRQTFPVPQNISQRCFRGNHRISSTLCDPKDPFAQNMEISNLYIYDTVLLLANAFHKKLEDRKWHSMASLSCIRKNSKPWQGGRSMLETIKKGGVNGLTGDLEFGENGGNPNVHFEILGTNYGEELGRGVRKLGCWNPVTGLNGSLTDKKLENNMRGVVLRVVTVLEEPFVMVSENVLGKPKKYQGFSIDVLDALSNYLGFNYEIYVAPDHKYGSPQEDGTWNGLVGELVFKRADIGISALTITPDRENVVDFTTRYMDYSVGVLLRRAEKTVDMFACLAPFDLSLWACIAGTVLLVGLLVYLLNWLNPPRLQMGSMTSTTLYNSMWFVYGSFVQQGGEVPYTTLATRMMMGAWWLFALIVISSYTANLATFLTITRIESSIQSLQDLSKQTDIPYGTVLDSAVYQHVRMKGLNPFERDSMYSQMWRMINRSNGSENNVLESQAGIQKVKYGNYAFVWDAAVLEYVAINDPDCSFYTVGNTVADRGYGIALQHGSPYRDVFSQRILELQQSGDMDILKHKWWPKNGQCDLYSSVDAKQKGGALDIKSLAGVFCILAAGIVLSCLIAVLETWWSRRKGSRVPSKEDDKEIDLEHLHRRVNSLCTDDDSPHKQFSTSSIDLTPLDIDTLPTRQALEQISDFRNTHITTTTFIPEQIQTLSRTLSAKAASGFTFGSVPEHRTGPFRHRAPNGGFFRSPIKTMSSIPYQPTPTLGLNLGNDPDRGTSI
Text: (C) Left panels, example recordings of oocytes expressing A654T lurcher-mutant RatGluD2 (RatGluD2Lc) in response to indicated AMPA iGluR antagonists and D-serine. Dashed line, zero current baseline. Right panel, % inhibition at different oocytes (dots) and resulting means (columns).

[2] = biological target: T2, WT RatGluD2 (Rattus norvegicus, UniProt Q63226); test: Two-electrode voltage clamp in oocytes; format: cell-based; conditions: n = 4
T2 construct: expressed in transfected cells; host or cells: Xenopus laevis oocytes injected with mRNA
T2 sequence (Q63226 24-1007): T1 sequence (Q63226 24-1007 A654T) with T631A

[3] = biological target: T3, AcaGluD (Acanthaster planci, UniProt A0A8B7XXR5); test: Two-electrode voltage clamp, ligand-gated currents in oocytes; format: cell-based
T3 sequence (A0A8B7XXR5 24-958): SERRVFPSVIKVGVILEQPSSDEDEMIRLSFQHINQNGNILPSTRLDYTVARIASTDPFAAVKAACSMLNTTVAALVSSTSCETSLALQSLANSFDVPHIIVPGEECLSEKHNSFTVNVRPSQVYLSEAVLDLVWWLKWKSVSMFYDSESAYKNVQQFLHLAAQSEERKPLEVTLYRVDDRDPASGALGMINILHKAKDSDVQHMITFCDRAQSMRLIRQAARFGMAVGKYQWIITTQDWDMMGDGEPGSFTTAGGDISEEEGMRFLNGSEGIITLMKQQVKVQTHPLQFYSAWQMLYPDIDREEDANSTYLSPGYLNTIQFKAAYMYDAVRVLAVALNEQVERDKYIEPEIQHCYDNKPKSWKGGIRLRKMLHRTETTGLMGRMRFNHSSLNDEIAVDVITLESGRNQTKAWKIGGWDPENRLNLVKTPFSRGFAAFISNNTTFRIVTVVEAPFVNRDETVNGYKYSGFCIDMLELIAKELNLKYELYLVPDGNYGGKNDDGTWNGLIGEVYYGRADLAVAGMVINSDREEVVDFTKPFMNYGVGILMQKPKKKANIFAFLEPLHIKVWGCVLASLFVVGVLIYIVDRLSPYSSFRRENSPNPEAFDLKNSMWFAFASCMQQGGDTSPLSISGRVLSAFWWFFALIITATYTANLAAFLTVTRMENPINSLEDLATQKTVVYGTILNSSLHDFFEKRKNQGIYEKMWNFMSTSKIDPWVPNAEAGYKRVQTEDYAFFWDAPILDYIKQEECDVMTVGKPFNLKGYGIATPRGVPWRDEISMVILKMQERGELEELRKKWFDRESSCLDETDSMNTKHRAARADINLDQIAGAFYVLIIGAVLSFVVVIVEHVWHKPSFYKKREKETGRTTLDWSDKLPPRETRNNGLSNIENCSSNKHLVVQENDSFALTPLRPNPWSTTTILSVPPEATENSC

[4] = biological target: T4, RatGluD2^Lc^-9x (Rattus norvegicus, UniProt Q63226, A654T/A686S/D753Q/K694R/N720P/N763K/P806D/Q786M/R787V/Y613F); test: Two-electrode voltage clamp, responses to ligands in mutant-expressing oocytes; format: cell-based; conditions: pentamidine 100 μM
T4 construct: expressed in transfected cells; host or cells: Xenopus laevis oocytes injected with mRNA
Text: If the 10 mutations discussed above drove the loss of function in vertebrate delta iGluRs, one might expect that the latter could be “reawakened” via active invertebrate delta iGluR-like mutations here. We therefore engineered mutant RatGluD2 iGluRs to contain at these positions the equivalent residues from starfish delta iGluRs. These mutants were RatGluD2^5x, containing Y613F, A686S, K694R, N720P, and P806D substitutions (pink in Fig. 6A), and RatGluD2^9x, additionally containing N763K, D753Q, Q786M, and R787V (cyan in Fig. 6A).
Fig. 6. AcaGluD-like mutations alter RatGluD2 receptor function. (A) D-serine bound RatGluD2 from X-ray structure PDB:2v3u ([13]). Selected amino acid residues are indicated, colored, shown as sticks, and labeled 5×, 9×, 10×, and/or Lc according to the multiple mutants they were incorporated into. 10× mutant included 10×, 9×, and 5× positions. 9× included 9× and 5×. 5× included only 5×. […] (B–E) Example current responses to different neurotransmitter ligands (30 mM) and to pore blocker pentamidine (Pent, 100 μM) in oocytes expressing indicated RatGluD2 mutants. The dashed line indicates zero current baseline. (F) Individual (dots) and mean (columns) responses to ligands in oocytes expressing indicated RatGluD2 mutants (n = 4 to 5).

[5] = biological target: RatGluA2 AMPA receptors (Rattus norvegicus, UniProt P19491); test: Two-electrode voltage clamp, glutamate-gated current in oocytes expressing RatGluA2 and human TARPγ2; format: cell-based; conditions: n = 5
Text: (dots) and resulting means (columns).

[6] = test system: S713A AcaGluD; test: Two-electrode voltage clamp, GABA-gated current before/after concanavalin A treatment; format: cell-based, Acanthaster planci; conditions: concanavalin A 10 μM, 30 mM GABA
Text: (§1) Fig. 5. RatGluD2-like substitutions impair the ligand-gated activity of AcaGluD receptors. (A) Ligand-gated currents in oocytes expressing indicated mutant AcaGluD receptors or uninjected oocytes. (B) Maximum current amplitude (“Imax”, Upper) and relative ligand-gated current amplitude (“I/Imax”, Lower) and at wild-type (WT) and mutant AcaGluD receptors (mean ± SEM, n = 3 to 5). (C) Immunolabeling c-Myc tag in AcaGluD C-terminal. Upper, example micropgraphs. Lower, […] fluorescence units (RFU) plotted against relative radial distance, peaking at the oocyte surface. White scale bars, 100 μm. (D) AlphaFold model of two adjacent AcaGluD LBDs (rear LBD faded). Selected amino acid residues colored and shown as sticks. Magenta, drastic loss of function; cyan, moderate loss of function. […] (E) Upper, example, and Lower, summarized current responses to 30 mM GABA (“IGABA”) in WT or mutant AcaGluD-expressing oocytes before or after treatment with concanavalin A (“ConA”, 10 μM).

[7] = test system: R721K AcaGluD; test: as above; format: cell-based, Acanthaster planci; conditions: concanavalin A 10 μM, 30 mM GABA
Text: as §1

[8] = test system: D825P AcaGluD; test: as above; format: cell-based, Acanthaster planci; conditions: concanavalin A 10 μM, 30 mM GABA
Text: as §1

[9] = test system: F640Y AcaGluD; test: as above; format: cell-based, Acanthaster planci; conditions: concanavalin A 10 μM, 30 mM GABA
Text: as §1

T4 sequence (Q63226 24-1007 Y613F/A654T/A686S/K694R/N720P/D753Q/N763K/Q786M/R787V/P806D): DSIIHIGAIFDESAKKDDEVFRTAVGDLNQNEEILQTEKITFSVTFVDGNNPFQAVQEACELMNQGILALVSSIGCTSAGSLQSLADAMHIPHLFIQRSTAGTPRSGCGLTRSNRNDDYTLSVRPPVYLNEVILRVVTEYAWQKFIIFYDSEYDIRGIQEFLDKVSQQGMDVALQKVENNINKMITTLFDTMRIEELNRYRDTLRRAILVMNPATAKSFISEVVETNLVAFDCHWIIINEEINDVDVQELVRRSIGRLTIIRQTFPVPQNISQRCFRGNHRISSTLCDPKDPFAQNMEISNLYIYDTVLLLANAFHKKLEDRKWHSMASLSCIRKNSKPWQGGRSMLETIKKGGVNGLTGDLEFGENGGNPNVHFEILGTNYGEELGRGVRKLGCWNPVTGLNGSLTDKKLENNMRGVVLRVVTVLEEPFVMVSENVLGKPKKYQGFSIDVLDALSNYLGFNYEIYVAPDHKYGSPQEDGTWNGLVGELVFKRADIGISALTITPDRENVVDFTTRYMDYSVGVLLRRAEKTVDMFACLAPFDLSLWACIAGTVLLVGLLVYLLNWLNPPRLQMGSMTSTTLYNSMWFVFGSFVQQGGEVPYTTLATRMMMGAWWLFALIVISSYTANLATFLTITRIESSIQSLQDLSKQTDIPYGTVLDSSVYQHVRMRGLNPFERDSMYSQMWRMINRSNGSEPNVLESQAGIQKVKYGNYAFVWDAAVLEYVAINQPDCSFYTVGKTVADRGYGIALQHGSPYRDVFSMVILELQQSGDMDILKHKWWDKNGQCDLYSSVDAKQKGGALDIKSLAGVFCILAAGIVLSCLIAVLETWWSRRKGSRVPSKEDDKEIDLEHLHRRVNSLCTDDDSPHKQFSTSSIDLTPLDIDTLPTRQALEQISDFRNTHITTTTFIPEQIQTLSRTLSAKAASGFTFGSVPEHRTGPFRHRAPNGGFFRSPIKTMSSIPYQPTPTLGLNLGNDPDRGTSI
Sequence of RatGluA2 AMPA receptors (P19491 22-883 isoform P19491-2 limits assumed): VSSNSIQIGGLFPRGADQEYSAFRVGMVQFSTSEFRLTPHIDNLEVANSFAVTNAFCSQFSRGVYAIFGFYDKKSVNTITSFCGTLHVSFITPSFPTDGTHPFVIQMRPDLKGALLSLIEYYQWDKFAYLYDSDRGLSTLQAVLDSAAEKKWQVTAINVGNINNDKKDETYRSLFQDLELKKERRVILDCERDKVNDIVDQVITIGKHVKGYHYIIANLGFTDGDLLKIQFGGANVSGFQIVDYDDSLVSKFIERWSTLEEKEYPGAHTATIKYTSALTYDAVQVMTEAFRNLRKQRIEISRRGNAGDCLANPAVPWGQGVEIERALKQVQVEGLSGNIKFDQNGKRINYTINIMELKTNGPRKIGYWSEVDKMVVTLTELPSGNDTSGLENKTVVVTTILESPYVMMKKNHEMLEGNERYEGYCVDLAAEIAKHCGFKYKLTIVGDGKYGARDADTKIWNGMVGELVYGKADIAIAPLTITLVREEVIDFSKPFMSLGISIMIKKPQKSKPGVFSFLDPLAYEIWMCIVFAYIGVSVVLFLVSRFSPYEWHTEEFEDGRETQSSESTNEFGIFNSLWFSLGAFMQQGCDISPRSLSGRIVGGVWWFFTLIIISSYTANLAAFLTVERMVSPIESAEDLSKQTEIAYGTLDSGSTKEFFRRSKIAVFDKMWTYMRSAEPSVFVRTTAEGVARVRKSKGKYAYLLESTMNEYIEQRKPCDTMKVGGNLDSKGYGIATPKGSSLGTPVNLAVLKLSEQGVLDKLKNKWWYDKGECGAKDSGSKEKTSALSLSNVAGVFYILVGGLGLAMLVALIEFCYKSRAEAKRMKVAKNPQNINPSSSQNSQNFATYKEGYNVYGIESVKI
Sequence of RatGluA2 AMPA receptors (Q9Y698 whole entry partner): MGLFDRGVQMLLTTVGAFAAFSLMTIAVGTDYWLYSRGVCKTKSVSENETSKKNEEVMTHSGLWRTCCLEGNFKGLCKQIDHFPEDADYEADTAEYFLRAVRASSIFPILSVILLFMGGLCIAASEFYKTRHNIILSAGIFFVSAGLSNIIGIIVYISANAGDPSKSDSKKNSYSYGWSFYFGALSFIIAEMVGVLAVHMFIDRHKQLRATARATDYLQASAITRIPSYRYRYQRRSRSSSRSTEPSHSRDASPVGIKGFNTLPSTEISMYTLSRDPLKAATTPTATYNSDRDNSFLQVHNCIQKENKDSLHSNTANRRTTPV

## NS(=O)(=O)c1cccc2c1c([N+](=O)[O-])cc1nc(O)c(O)nc12 [NBQX]
[1]
  inhibition of constitutive currents: 9 ± 0.2%
[2]
  effect on oocytes expressing WT RatGluD2: no effect
[3]; 100 μM, applied alone
  currents elicited when applied alone: elicited no currents
[3]; 100 μM, coapplied with ~EC30 GABA concentration
  inhibition of GABA-gated current: 61 ± 3%
[3]; 100 μM, n = 5
  enhancement of glutamate-gated currents: 34 ± 3%

## N=C(N)c1ccc(OCCCCCOc2ccc(C(=N)N)cc2)cc1 [pentamidine]
[4]
  effect on glycine-gated currents: inhibited
[5]
  inhibition at 100 µM: 37 ± 3%
[3]; 100 μM, n = 5, read-out: block of GABA-gated current
  inhibition at 100 µM: 68 ± 5%
[3]; 100 µM, n = 7, read-out: block of glutamate-gated current
  inhibition at 100 µM: 78 ± 2%

## Concanavalin A
[6]
  increase in activity (GABA-gated current) after treatment: > 100 fold
[7]
  increase in activity (GABA-gated current) after treatment: > 100 fold
[8]
  increase in current amplitude after treatment: fourfold increase
[9]
  increase in activity (GABA-gated current) after treatment: > 100 fold
